The test system of data set [1] is rat platelet-rich plasma. Nature of the data set: In vitro antiplatelet activity: platelet aggregation in rat platelet-rich plasma (turbidimetric method of Born and Cross). In kind it is cell-based. The note with it: compounds and ASA at 150 μM, rat PRP, n = 3; for inhibition at 150 µM: Platelet.
Method: In vitro antiplatelet activity was evaluated using rat platelet-rich plasma in the presence of ADP (10 μM), arachidonic acid (100 μM) and collagen (5 μg/mL) [15, 16].
Five rats (Wistar; 200–250 g) were previously anesthetized by inhalation of isoflurane using a vaporizing system. Animal breathing was monitored during all procedures. Blood was withdrawn from each rat’s aorta artery and mixed with 3.8% trisodium citrate (9:1 v/v). The animals were then euthanized by deepening of anesthesia. Platelet-rich plasma (PRP) was prepared by centrifugation at 375× g for 10 min at room temperature. The platelet-poor plasma (PPP) was prepared by centrifugation of the pellet at 1800× g for 10 min at room temperature. Platelet aggregation was monitored by the turbidimetric method of Born and Cross [16] using a Chrono-Log aggregometer. PRP (300 μL) was incubated at 37 °C for 1 min with continuous stirring at 900 rpm. ADP (10 μM), type I collagen (5 μg/mL; molecular weight of 115–130 kDa) and arachidonic acid (100 μM) were used to induce platelet aggregation. […] Acetylsalicylic acid (AAS, 150 μM) was used as positive control. The results were expressed as an inhibition percentage. The statistical analysis was performed using ANOVA followed by Tukey’ s test.
Data set [2] has as its system mouse pulmonary thromboembolism model. As to the kind of experiment: In vivo antithrombotic activity: acute pulmonary thromboembolism model induced by collagen-epinephrine mixture. To be noted: mice; for deaths per group: ten per group, oral 100 µmol/10 g, 15 min after thrombogenic stimulus; for % Protection / Paralyzed or Died Animals/Total: oral single dose 100 µmol/10 g body weight; for % Protection: [1 − (paralyzed + death animals)/total animals] × 100; for Paralyzed or Died Animals/Total: collagen (11 mg/kg) plus epinephrine (0.7 mg/kg) i.v. after 60 min, evaluated 15 min after stimulus.
Method: The antithrombotic effects of all compounds (3a,b, 4a,b, 8a,b, 9a,b, 13a,b and 14a,b) were evaluated in vivo using a mouse pulmonary thromboembolism model [18, 19].
In vivo pulmonary thromboembolism was induced in mice according to previously described procedures [18, 19]. Ten Swiss male mice (25−30 g) were used in each test group and the control group. Compounds (3a,b, 4a,b, 8a,b, 9a,b, 13a,b and 14a,b) and acetylsalicylic acid were given orally (100 µmol/10 g, 0.1 mL/10 g) using a 2% carboxymethylcellulose suspension as the vehicle. After 60 min, an intravenous injection of the thrombogenic stimulus containing a mixture of collagen (11 mg/kg) plus epinephrine (0.7 mg/kg) was administered through the tail vein. The dose of the pro-thrombotic mixture was previously characterized using a dose/response curve able to reliably reproduce 80%–90% mortality rate or animal paralysis [15]. The loss of the righting reflex was considered an indication of animal’s paralysis in the control group. The rates of animal survival and paralysis were evaluated 15 min after the administration of the thrombogenic stimulus. After this time, the animals were euthanized using carbon dioxide. […] The protection against acute pulmonary thromboembolism (percentage) was calculated as follows: [1 − (paralyzed + death animals)/total animals] × 100. The chi-square test was used to examine the difference between the control and treated groups.

Data set [3] deals with micronucleated reticulocytes (MNRET) of mice. Nature of the data set: In vivo genotoxicity: micronucleus test in peripheral blood reticulocytes. The procedure:
The genotoxicity induced by 14a was evaluated using the micronucleus test.
Compound 14a (250 mg/kg) and negative control (1% carboxymethylcellulose (CMC) suspension and 0.2% tween; 0.3 mL) were administered to the animals orally. The positive control group received cyclophosphamide (50 mg/kg; i.p.). Groups of 10 Swiss mice of both sexes (25−30 g) were used in each test and control group. After 30 h, the animals were anesthetized using a mixture of ketamine/xylazine (100/10 mg/kg; i.p.), and […] of blood were collected from the tail vein and added to laminas pre-stained with acridine orange. The animals were euthanized via deepening of anesthesia. One thousand reticulocytes per animal were counted, and the frequency of micronucleated cells was registered. […] When p < 0.05, the average values for the treatments were compared using the Tukey method, calculating the minimum significant difference at α = 0.05.

[4] abbreviates: aggregation induced by ADP 10 μM.
[5] abbreviates: aggregation induced by arachidonic acid 100 μM.
Setting [6] is: aggregation induced by collagen 5 μg/mL.
Setting [7] is: aggregation induced by ADP 10 μM, read-out: Platelet Inhibition (%) ADP (10 μM).
[8] abbreviates: aggregation induced by collagen 5 μg/mL, read-out: Platelet Inhibition (%) Collagen (5 μg/mL).
[9] abbreviates: aggregation induced by arachidonic acid 100 μM, read-out: Platelet Inhibition (%) Arachidonic Acid (100 μM).

Read-outs that look alike come from different tables or passages of the source. Marks after values point to notes of the source that are not given here.

“3-((2-(3-Hydroxybenzoyl)hydrazono)methyl)-4-methyl-1,2,5-oxadiazole 2-oxide [Compound 3a]”: the “Platelet Inhibition (%) ADP (10 μM)” value in data set [1] (setting [4]) is 10.1 ± 3.3 %. The “Platelet Inhibition (%) Arachidonic Acid (100 μM)” value in data set [1] (setting [5]) turned out to be 52.6 ± 4.1 %. The “Platelet Inhibition (%) Collagen (5 μg/mL)” value in data set [1] (setting [6]) is given as 17.5 ± 2.7 %. Further, in data set [2], the deaths per group entry is “two”, the “% Protection” value is given as 40 * % and the “Paralyzed or Died Animals/Total” value is listed as 6/10.
On to “3-((2-(4-Hydroxybenzoyl)hydrazono)methyl)-4-methyl-1,2,5-oxadiazole 2-oxide [Compound 3b]”, for which the “Platelet Inhibition (%) ADP (10 μM)” value in data set [1] (setting [4]) is recorded as 16.8 ± 2.9 %. The “Platelet Inhibition (%) Arachidonic Acid (100 μM)” value in data set [1] (setting [5]) was determined as 47.8 ± 3.7 %. Besides, in data set [1] (setting [6]), the “Platelet Inhibition (%) Collagen (5 μg/mL)” value is 10.5 ± 3.3 %. For the same compound, in data set [2], the deaths per group entry was “two”, the “% Protection” value is 30 * % and the “Paralyzed or Died Animals/Total” value is recorded as 7/10.
With “5-((2-(3-Hydroxybenzoyl)hydrazono)methyl)benzo[c][1,2,5]oxadiazole 1-oxide [Compound 13a]”, the “Platelet Inhibition (%) ADP (10 μM)” value in data set [1] (setting [4]) worked out at 47.1 ± 2.5 %. Further, the “Platelet Inhibition (%) Arachidonic Acid (100 μM)” value in data set [1] (setting [5]) was 52.3 ± 3.8 %. Also, the “Platelet Inhibition (%) Collagen (5 μg/mL)” value in data set [1] (setting [6]) turned out to be 45.1 ± 3.8 %. For the same compound, in data set [2], the “% Protection” value is recorded as 70 *^,† % and the “Paralyzed or Died Animals/Total” value was 3/10.
In the case of `CC(=O)Oc1ccccc1C(=O)O` [ASA, acetylsalicylic acid, reference compound], in data set [1] (setting [7]), the inhibition at 150 µM was 0%. Besides, the inhibition at 150 µM in data set [1] (setting [8]) amounted to 77.1 ± 3.7%. In addition, the “Platelet Inhibition (%) ADP (10 μM)” value in data set [1] (setting [4]) is given as “did not inhibit”. For the same compound, the “Platelet Inhibition (%) Arachidonic Acid (100 μM)” value in data set [1] (setting [5]) came out at 72.2 ± 3.7 %. In data set [2], the deaths per group entry is given as “two”, the “% Protection” value is 30 * % and the “Paralyzed or Died Animals/Total” value is given as 7/10.
As to `O=C(NN=Cc1c(-c2ccccc2)no[n+]1[O-])c1cccc(O)c1` [Compound 8a, 3-((2-(3-Hydroxybenzoyl)hydrazono)methyl)-4-phenyl-1,2,5-oxadiazole 2-oxide], the inhibition at 150 µM in data set [1] (setting [7]) turned out to be 12.4 ± 3.7%; in data set [1] (setting [9]), 55.1 ± 4.3%; in data set [1] (setting [8]), 21.8 ± 5.1%. The deaths per group result in data set [2] was “two”. In addition, in data set [2], the “% Protection” value is recorded as 40 * %. Besides, the “Paralyzed or Died Animals/Total” value in data set [2] is listed as 6/10.
For `O=C(NN=Cc1c(-c2ccccc2)no[n+]1[O-])c1ccc(O)cc1` [Compound 8b, 3-((2-(4-Hydroxybenzoyl)hydrazono)methyl)-4-phenyl-1,2,5-oxadiazole 2-oxide], the inhibition at 150 µM in data set [1] (setting [7]) amounted to 9.2 ± 2.8%; in data set [1] (setting [9]), 31.6 ± 3.9%; in data set [1] (setting [8]), 8.8 ± 3.6%. Moreover, the deaths per group result in data set [2] is on record as “two”. Moreover, the “% Protection” value in data set [2] is 40 * %. For the same compound, in data set [2], the “Paralyzed or Died Animals/Total” value is 6/10.
As to `CC(=O)Oc1ccccc1C(=O)Oc1cccc(C(=O)N/N=C/c2c(-c3ccccc3)no[n+]2[O-])c1` [Compound 9a, (E)-3-((2-(3-((2-Acetoxybenzoyl)oxy)benzoyl)hydrazono)methyl)-4-phenyl-1,2,5-oxadiazole 2-oxide], the figures for the inhibition at 150 µM in data set [1] (setting [7]), in data set [1] (setting [9]) and in data set [1] (setting [8]) were 53.4 ± 2.1%, 73.4 ± 3.3% and 43.5 ± 4.7%, respectively. The deaths per group entry in data set [2] is listed as “two”. In addition, the “% Protection” value in data set [2] is listed as 30 * %. Also, in data set [2], the “Paralyzed or Died Animals/Total” value was 7/10.
Turning to `CC(=O)Oc1ccccc1C(=O)Oc1ccc(C(=O)N/N=C/c2c(-c3ccccc3)no[n+]2[O-])cc1` [Compound 9b, (E)-3-((2-(4-((2-Acetoxybenzoyl)oxy)benzoyl)hydrazono)methyl)-4-phenyl-1,2,5-oxadiazole 2-oxide], the figures for the inhibition at 150 µM in data set [1] (setting [7]), in data set [1] (setting [9]) and in data set [1] (setting [8]) were 68.8 ± 1.3%, 82.7 ± 2.1% and 47.2 ± 2.9%, respectively. In data set [2], the “% Protection” value was 50 *^,† %. Moreover, the “Paralyzed or Died Animals/Total” value in data set [2] is listed as 5/10.
On to `O=C(NN=Cc1ccc2c(c1)no[n+]2[O-])c1ccc(O)cc1` [Compound 13b, 5-((2-(4-Hydroxybenzoyl)hydrazono)methyl)benzo[c][1,2,5]oxadiazole 1-oxide], for which the “Platelet Inhibition (%) ADP (10 μM)” value in data set [1] (setting [4]) was found to be 44.2 ± 5.1 %. In addition, the “Platelet Inhibition (%) Arachidonic Acid (100 μM)” value in data set [1] (setting [5]) came to 57.8 ± 4.9 %. In addition, the “Platelet Inhibition (%) Collagen (5 μg/mL)” value in data set [1] (setting [6]) is recorded as 43.0 ± 3.1 %. In addition, in data set [2], the “% Protection” value was 70 *^,† % and the “Paralyzed or Died Animals/Total” value is 3/10.
Consider `CC(=O)Oc1ccccc1C(=O)Oc1cccc(C(=O)N/N=C/c2ccc3c(c2)no[n+]3[O-])c1` [Compound 14a, (E)-5-((2-(3-((2-Acetoxybenzoyl)oxy)benzoyl)hydrazono)methyl)benzo[c][1,2,5]oxadiazole 1-oxide], for which, in data set [1] (setting [5]), the “Platelet Inhibition (%) Arachidonic Acid (100 μM)” value was 76.9 ± 3.1 %. Further, in data set [1] (setting [6]), the “Platelet Inhibition (%) Collagen (5 μg/mL)” value is 85.3 ± 3.7 %. In data set [3] (mouse, in vivo, po, 250 mg/kg), the “micronucleated reticulocytes (MNRET), frequency in 1000 cells” value is under 4. Further, in data set [2], the “% Protection” value is given as 80 *^,† % and the “Paralyzed or Died Animals/Total” value is 2/10.
Turning to `CC(=O)Oc1ccccc1C(=O)Oc1ccc(C(=O)N/N=C/c2ccc3c(c2)no[n+]3[O-])cc1` [Compound 14b, (E)-5-((2-(4-((2-Acetoxybenzoyl)oxy)benzoyl)hydrazono)methyl)benzo[c][1,2,5]oxadiazole 1-oxide], the “Platelet Inhibition (%) Arachidonic Acid (100 μM)” value in data set [1] (setting [5]) worked out at 79.1 ± 1.9 %. Moreover, the “Platelet Inhibition (%) Collagen (5 μg/mL)” value in data set [1] (setting [6]) was found to be 79.8 ± 3.4 %. Further, in data set [2], the “% Protection” value is listed as 70 *^,† % and the “Paralyzed or Died Animals/Total” value is reported as 3/10.
Regarding `O=P1(N(CCCl)CCCl)NCCCO1` (stereo not drawn) [Cyclophosphamide, reference compound], in data set [3] (mice, positive control 50 mg/kg i.p., blood collected after 30 h, mean ± SD), the “micronucleated reticulocytes (MNRET), frequency in 1000 cells” value came out at 41 ± 5.
For “(E)-3-((2-(3-((2-Acetoxybenzoyl)oxy)benzoyl)hydrazono)methyl)-4-methyl-1,2,5-oxadiazole 2-oxide [Compound 4a]”, the “Platelet Inhibition (%) ADP (10 μM)” value in data set [1] (setting [4]) came to 65.6 ± 2.4 %. Moreover, in data set [1] (setting [5]), the “Platelet Inhibition (%) Arachidonic Acid (100 μM)” value was 70.1 ± 2.9 %. In data set [1] (setting [6]), the “Platelet Inhibition (%) Collagen (5 μg/mL)” value worked out at 37.8 ± 4.1 %. In data set [2], the deaths per group entry is “two”, the “% Protection” value is listed as 40 * % and the “Paralyzed or Died Animals/Total” value is given as 6/10.
Turning to “(E)-3-((2-(4-((2-Acetoxybenzoyl)oxy)benzoyl)hydrazono)methyl)-4-methyl-1,2,5-oxadiazole 2-oxide [Compound 4b]”, in data set [1] (setting [5]), the “Platelet Inhibition (%) Arachidonic Acid (100 μM)” value turned out to be 87.5 ± 2.6 %. In data set [1] (setting [6]), the “Platelet Inhibition (%) Collagen (5 μg/mL)” value was 34.5 ± 3.5 %. In data set [2], the “% Protection” value is 50 *^,† % and the “Paralyzed or Died Animals/Total” value was 5/10.
